# Measured values reported in PubChem BioAssay AID1053199 (The Scripps Research Institute Molecular Screening Center, 2014).
# The source made the active and inactive calls.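 How the source made its calls: active means inhibition at or above 50% when tested at 10 µM; inactive means inhibition below 50% at 10 µM.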
# Molecular target: Methionine--tRNA ligase, mitochondrial (Homo sapiens) (UniProt Q96GW9)
# Experiment: inhibitors of human mitochondrial methionyl-tRNA synthetase – biochemical, radioactivity, round 3, selectivity assay for T. brucei MetRS inhibitor project, late-stage follow-up (AID 1053199)
# Conditions: recombinant human mitochondrial MetRS, [3H]Met aminoacylation, stronger effect = higher value
# Methionine--tRNA ligase, mitochondrial (Homo sapiens), sequence (Q96GW9 whole entry, looked up): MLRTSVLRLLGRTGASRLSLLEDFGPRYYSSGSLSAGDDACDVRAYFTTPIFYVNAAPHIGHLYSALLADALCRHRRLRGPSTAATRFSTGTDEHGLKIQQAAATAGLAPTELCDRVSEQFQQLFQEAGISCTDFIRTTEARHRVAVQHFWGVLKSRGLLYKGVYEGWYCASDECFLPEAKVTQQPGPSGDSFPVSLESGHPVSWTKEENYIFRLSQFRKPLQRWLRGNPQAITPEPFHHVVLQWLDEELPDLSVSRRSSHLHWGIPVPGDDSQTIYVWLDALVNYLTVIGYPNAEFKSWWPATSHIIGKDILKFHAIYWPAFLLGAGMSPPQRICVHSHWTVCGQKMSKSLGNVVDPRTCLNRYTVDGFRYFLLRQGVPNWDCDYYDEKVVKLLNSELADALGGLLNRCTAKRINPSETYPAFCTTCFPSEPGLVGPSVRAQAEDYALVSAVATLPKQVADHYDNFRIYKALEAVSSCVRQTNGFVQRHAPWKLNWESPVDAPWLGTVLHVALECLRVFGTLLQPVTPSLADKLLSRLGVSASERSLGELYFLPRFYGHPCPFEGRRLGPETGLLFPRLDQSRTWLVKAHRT
Compound,inhibition (at 10 µM),"inhibition (inhibition, at 1 µM) [%]"
CCN(CC)C(=O)C(=O)c1cn(CC(=O)Nc2cc(Oc3ccc(OC)cc3)cc(C(F)(F)F)c2)c2ccccc12,-1.74% (inactive),-4.97
CCN(CC)C(=O)C(=O)c1cn(CC(=O)Nc2cc(Oc3ccccc3F)cc(C(F)(F)F)c2)c2ccccc12,-4.45% (inactive),-5.27
O=C(Cn1cc(C(=O)C(=O)NCc2ccccc2)c2ccccc21)Nc1cc(Oc2ccccc2)cc(C(F)(F)F)c1,-8.53% (inactive),-1.57
CCN(CC)C(=O)C(=O)c1cn(CCNc2cc(Oc3ccccc3)cc(C(F)(F)F)c2)c2ccccc12,2.68% (inactive),-2.31
Nc1c(Cl)ncnc1Nc1ccc(C(=O)O)cc1,6.59% (inactive),2.59
CCN(CC)C(=O)C(=O)c1cn(CCNc2cccc(C(F)(F)F)c2)c2ccccc12,0.1% (inactive),-5.12
CCN(CC)C(=O)C(=O)c1cn(CC(=O)Nc2cc(Oc3ccccc3OC)cc(C(F)(F)F)c2)c2ccccc12,6.34% (inactive),-6.59
O=C(Cc1ccc(Nc2nc3ccc(Br)cc3[nH]2)cc1)NCCc1cccs1,0.91% (inactive),5.12
CCN(CC)C(=O)C(=O)c1cn(CC(=O)Nc2cc(Oc3ccc(F)cc3)cc(C(F)(F)F)c2)c2ccccc12,7.56% (inactive),-2.44
CCN(CC)C(=O)Cc1cn(CC(=O)Nc2cccc(C(F)(F)F)c2)c2ccccc12,-11.2% (inactive),-8.45
